Like-named read-outs stand apart in the source and are kept apart here.
How the values were obtained:
[1] = tested on: microbial enrichment cultures; experiment: Inhibitory potency (IC50) of inorganic compounds against growth and ammonium production, microbial enrichment with yeast extract; assay type: cell-based
[2] = tested on: microbial enrichment cultures; experiment: Ammonium production normalized by growth (NH4+/OD ratio) of microbial enrichment cultivated on individual carbon sources; assay type: cell-based
[3] = microbial enrichment with complex carbon source (yeast extract), serial dilutions of inorganic compound, higher ratio favors ammonium production
[4] = average of 8 independent cultures amended with varying concentrations of the carbon source, ammonium by colorimetric (Bertholet) assay, growth by OD 600

Row | Molecule | NH4^+ IC50/growth IC50 ratio [1] | also measured
1 | CC(=O)c1ccc(O)cc1 [4-Hydroxyacetophenone] | 1.3700 | 
2 | O=C1c2ccc(S(=O)(=O)O)cc2C(=O)c2cc(S(=O)(=O)O)ccc21 [AQDS, 9,10-Anthraquinone-2,7-disulphonic acid] |  | NH4^+ IC50/growth IC50 ratio [1, 3]: 6.4905
3 | Cl.N [Ammonium chloride] | 1.0157 | 
4 | N.N.O.O=S(O)O [Ammonium sulfite monohydrate] | 2.0739 | 
5 | O.O.O.O.O.[Cd+2].[Cd+2].[Cl-].[Cl-].[Cl-].[Cl-] [Cadmium chloride hemipentahydrate] | 0.2809 | 
6 | [Ce+3].[Cl-].[Cl-].[Cl-] [Cerium(III) chloride] | 0.0189 | 
7 | [Cl-].[Cs+] [Cesium chloride] | 30.1708 | 
8 | O.O.O.O.O.O.[Cl][Cr]([Cl])[Cl] [Chromium(III) Chloride Hexahydrate] | 0.0003 | 
9 | O.O.O.O.O.O.[Cl-].[Cl-].[Co+2] [Cobalt chloride hexahydrate] | 22.1846 | 
10 | O=C(O)CC(NCCNC(CC(=O)O)C(=O)O)C(=O)O (centres unmarked) [Ethylenediamine-N,N′-disuccinic acid] |  | NH4^+ IC50/growth IC50 ratio [1, 3]: 44.3418
11 | [Cl-].[Cl-].[Cl-].[Eu+3] [Europium(III) chloride] | 0.1036 | 
12 | [Cl][Fe]([Cl])[Cl] [Ferric chloride] |  | NH4^+ IC50/growth IC50 ratio [1, 3]: 0.2642
13 | O=C(O)c1cc(O)c(O)c(O)c1 [Gallic Acid] |  | NH4^+ IC50/growth IC50 ratio [1, 3]: 4.9374
14 | [Cl-].[Cl-].[Cl-].[Ga+3] [Gallium(III)chloride] | 1.0037 | 
15 | Cl.NO [Hydroxylamine hydrochloride] | 0.3854 | 
16 | [Cl][Pb][Cl] [Lead(II)chloride] | 0.0174 | 
17 | [Cl-].[Li+] [Lithium chloride] | 3.4054 | 
18 | O=C(O)CN(CC(=O)O)CC(=O)O [Nitrilotriacetic acid] |  | NH4^+ IC50/growth IC50 ratio [1, 3]: 0.4756
19 | [Cl][Pd][Cl] [Palladium(II) chloride] |  | NH4^+ IC50/growth IC50 ratio [1, 3]: 0.4739

Row | Molecule | NH4^+ IC50/growth IC50 ratio [1] | also measured
20 | [Cl-].[K+] [Potassium Chloride] | 0.4776 | 
21 | O.O=[Te]([O-])[O-].[K+].[K+] [Potassium tellurite hydrate] | 0.1044 | 
22 | O=S(=O)([O-])CCBr.[Na+] [Sodium 2-bromoethanesulfonate] | 5.3024 | 
23 | O=S(=O)([O-])CCS.[Na+] [Sodium 2-mercaptoethanesulfonate] |  | NH4^+ IC50/growth IC50 ratio [1, 3]: 13.0401
24 | [Na+].[O-][Cl+2]([O-])[O-] [Sodium Chlorate] | 1.9090 | 
25 | [Cl-].[Na+] [Sodium Chloride] | 21.9487 | 
26 | O.O.O.O.O.O.O.O=[As]([O-])([O-])O.[Na+].[Na+] [Sodium arsenate dibasic heptahydrate] | 3.2618 | 
27 | O=C([O-])O.[Na+] [Sodium bicarbonate] | 0.3242 | 
28 | O=C([O-])[O-].[Na+].[Na+] [Sodium carbonate] | 0.5039 | 
29 | C[C@H](CCC(=O)[O-])[C@H]1CC[C@H]2[C@@H]3[C@H](O)C[C@@H]4C[C@H](O)CC[C@]4(C)[C@H]3C[C@H](O)[C@]12C.O.[Na+] [Sodium cholate hydrate] | 5.9537 | 
30 | OCl [Sodium hypochlorite] |  | NH4^+ IC50/growth IC50 ratio [1, 3]: 0.0048
31 | O=[As][O-].[Na+] [Sodium m-arsenite] | 3.9664 | 
32 | CS(=O)(=O)[O-].[Na+] [Sodium methanesulfonate] | 0.4289 | 
33 | [Na+].[Na+].[O]=[Mo](=[O])([O-])[O-] [Sodium molybdate] | 6.7259 | 
34 | O=[N+]([O-])[O-].[Na+] [Sodium nitrate] | 3.4080 | 
35 | O=NO [Sodium nitrite] | 0.3023 | 
36 | D-Salicin |  | Ammonium/OD ratio [2, 4]: 1.35
37 | Gelatin |  | Ammonium/OD ratio [2, 4]: 0.85
38 | L-tyrosine disodium salt |  | Ammonium/OD ratio [2]: 0.87
